Measured values taken from patent publication US20040259853A1, “Methods for preventing acute clinical vascular events in a subject” (The Trustees of Columbia University, priority 2000, published 2004).

Columns and labels:
[1] = tested on: cholesterol trafficking to the endoplasmic reticulum; test: Whole-cell cholesterol esterification assay (cholesterol trafficking to ER membranes); format: cell-based, mouse
Description: Shown is the mean±S.E.M (n=3) of [^3H]cholesteryl ester formed (in cpm/mg cell protein).
Macrophages were incubated for 5 h with DMEM, 0.2% BSA containing 50 μg/ml [^3H]cholesterol-labeled acetyl-LDL alone or containing the indicated compounds. Cellular lipids were extracted twice with 0.5 ml of hexane:isopropanol (3:2, v/v), and the cellular content of [^3H]cholesteryl ester was determined using thin-layer chromatography (49). The lipid-extracted cell monolayer was dissolved in 1 ml 1N NaOH and assayed for protein content using the method of Lowry et al. (50).

ER calcium stores = test: Assay of ER calcium pools (Fura-2, thapsigargin release); format: cell-based, mouse; details: 70 nM, acetyl-LDL + 58035, 2.5 h (FIG. 18B)
Description: Shown are representative tracings of the 340/380-nm Fura-2 fluorescence ratio in an individual macrophage from each treatment group before and after addition of 1 μM thapsigargin.
Untreated or cholesterol-loaded macrophages on 25-mm coverslip-containing microscopy dishes were loaded with 4 μM Fura-2 μM (Molecular Probes) and 0.08% Pluronic F-127 in Hank's buffered saline solution (HBSS) at room temperature for 30 min. The monolayers were then washed twice with HBSS, incubated with HBSS for an additional 30 min and mounted on the stage of an inverted Nikon diaphot microscope equipped with a 40× objective. Sulfinpyrazone (250 μM) was included in all solutions to prevent excretion of the Fura-2 by the macrophages. Fluorescence images (510-nm emission following alternate 340-nm and 380-nm excitation) were collected through a charge-coupled device camera (Photon Technology International), and the 340:380 ratio of individual cells in these images was calculated.
Cells exposed to U18666A alone or culture media with no additives served as further control groups. […] Thapsigargin treatment results in emptying of ER calcium stores into the cytosol, which was quantified by fluorescence microscopy, providing a measure of releasable ER calcium stores at the time of thapsigargin addition.

[2] = tested on: mouse peritoneal macrophages; details: very low doses; reference 22; cited from earlier work
[3] = tested on: unfolded protein response (UPR); details: very low doses; reference 22; cited from earlier work
[4] = tested on: ABCA1-independent efflux to HDL2; test: 3H-cholesterol efflux to HDL2 from free cholesterol-loaded macrophages; format: cell-based, mouse; details: 70 nM, FC-loaded macrophages (FIG. 12B)
Description: Acetyl-LDL (800 μg) was incubated with 10 μCi ^3H-cholesterol for 30 min at 37° C., followed by addition of 8 ml of DMEM, 0.2% BSA. The macrophages were incubated with this medium for 5 h, washed 3 times with PBS, and then incubated with DMEM, 0.2% BSA for 15 min at 37° C. After washing with PBS, the macrophages were incubated with DMEM, 0.2% BSA, containing either 15 μg/ml apoAI or 20 μg/ml HDL2. At the indicated time points, 100 μl of media was removed and centrifuged for 5 min at 14,000 rpm to pellet cellular debris. The radioactivity in this fraction of media was quantitated by liquid scintillation counting. After the last time point, the remainder of the media was removed, and the cells were dissolved in 0.5 ml of 0.1 N NaOH containing 0.5% sodium dodecylsulfate (5 h at room temperature). A 100 μl-aliquot of the cell lysate was counted, and the percent efflux was calculated as (media cpm)[…](cell +media cpm)×100. Total protein in the cell lysate was determined using the Bio-Rad DC protein assay kit. Note that there was no statistical difference in cellular cpm or protein between cholesteryl ester- and free cholesterol-loaded macrophages.

## CCN(CC)CCO[C@H]1CC[C@@]2(C)C(=CC[C@@H]3[C@@H]2CC[C@]2(C)C(=O)CC[C@@H]32)C1 [U18666A, 3-β-[2-(diethylamino)ethoxy]androst-5-en-17-one]
[1]; 70 nM (data not shown)
  decrease of cholesterol trafficking to the endoplasmic reticulum: about 90%
[1]; low dose (70 nM), 5 h, acetyl-LDL (FIG. 15A)
  reduction of re-esterification of ingested cholesterol: 90%
ER calcium stores
  FC-loading-induced depletion of ER calcium stores (smaller thapsigargin-induced rise): completely prevented
[2]
  block of apoptosis in FC-loaded cultured macrophages: almost completely
[3]
  block of UPR activation in FC-loaded cultured macrophages: almost completely
[4]
  ABCA1-independent efflux (to HDL2): improved
